Test [1] has as its target T1, Mcl-1 (Homo sapiens, UniProt Q07820). Briefly: In vitro Mcl-1 ubiquitination by purified recombinant Mule. The format is biochemical. The following applies: in the presence of E1, Ubch7 (E2), ATP regenerating system; ubiquitin, methylated or GST-tagged ubiquitin. Here is the method:
(§1) In vitro Ubiguitination assay: In 15 ul reaction, 200 ng of recombinant Flag-Mcl-1 is incubated with an ATP regenerating system (50 mM Tris pH 7.6, 5 mM MgCl2, 2 mM ATP, 10 mM creatine phosphate, 3.5 U/ml of creatine kinase), 10 μg of Methyl-Ubiquitin, 10 ng human E1, 100 ng Ubch7, 2 μM of ubiquitin aldehyde, and 10 μg of S100 or designated fractions, at 37° C. for one hour. After terminating the reactions with SDS sample buffer, reaction products were fractionated by SDS-PAGE (10%) and analyzed by western blotting with anti-Flag M2 antibody during purification and anti-Mcl-1 when purified components were used.
The cDNA of full-length human Mule was subcloned into Sal I and Not I sites of pFastBac-1 (Invitrogen). Mule expression baculovirus were prepared according to manufacture's manual (Bac-to-Bac Baculovirus expression system, Invitrogen, Carlsbad, Calif.). Insect cells Sf21 were infected with the P3 virus. The cells were harvested after 2 days of infection. Cell pellet was re-suspended in buffer A and homogenized with a glass douncer (pellet of 1 L culture of infected Sf21 cells was resuspended in 50 ml of buffer A). The homogenate was centrifuged at 100,000 g (SW28 rotor, 25,000 rpm) for 1 hr. The S100 (2 g total protein) were filtered and loaded onto Q column (hand-packed 36 ml of Q Sepharose XL beads). […]

For test [2], the system named is U2OS cells. The test is described as follows: Cell death induced by DNA damaging agents with Mule knocked down. It counts as cell-based, human. The following applies: for cell death induced by the agent: Mule knocked down versus not. Here is the method:
The Mule shRNA construct was co-transfected with tetracycline repressor expression construct into 5×10^5 attached U2OS cells grown in DMEM with 10% FBS using Lipofectamine transfection reagent (Invitrogen) according to the manufacturer's protocol. One day later, the cells were selected against 1 μg/ml blasticidine and 2 μg/ml puromycin. After two weeks, individual clones were lifted and tested for expression of tetracycline repressor. Positive clones were further tested for Mule shRNA expression. Clones were treated with 2 μg/ml tetracycline for 3 days. Cell extracts were collected and subjected to 6% SDS-PAGE and western blotting with anti-Mule monoclonal antibody. Clones with the best inducible knock down of Mule were chosen for further experiments. […] We then treated cells with their Mule level knocked down with several DNA damaging agents including UV-irradiation and two commonly used chemotherapeutic drugs etoposide and cisplatin. […] We therefore performed a detailed biochemical analysis in cells treated with this drug with or without Mule knocked down.

Another test concerns caspase-3. Briefly: Caspase-3 activation (cleavage) and PARP cleavage after cisplatin treatment. The format is cell-based, human. The text has this: We then treated cells with their Mule level knocked down with several DNA damaging agents including UV-irradiation and two commonly used chemotherapeutic drugs etoposide and cisplatin. […] We therefore performed a detailed biochemical analysis in cells treated with this drug with or without Mule knocked down.

Test [3] has as its system U2OS cells. Briefly: Colony growth 8 days after 6 hours of cisplatin treatment. It counts as cell-based, human. The settings on record: 6 hours treatment, 8 days culture. Here is the method:
To test whether the delayed apoptosis when Mule was knocked down has a long last effect, cells were switched to fresh medium after 6 hours of cisplatin treatment and continued culture for 8 days.

Test [4] concerns the target T1, Mcl-1. The test is described as follows: Biotin-labeled BH3 peptide pull down from HeLa S100. It counts as binding. Also noted: endogenous in cells; host or cells: HeLa S100. An excerpt: (§2) To examine whether BH3 domain of Mule is sufficient for interaction with Mcl-1, we used a biotin-labeled version of the 26 amino acids Mule BH3 peptide (aa 1969-1994) and the 4E mutant to pull down proteins from cell extracts.

The target in the next test is T2, Mule (Homo sapiens).
T2 construct: The cDNA of full-length human Mule was subcloned into Sal I and Not I sites of pFastBac-1; made in house; host or cells: Sf21 insect cells, baculovirus (pFastBac-1)
T2 sequence (Q07820 whole entry): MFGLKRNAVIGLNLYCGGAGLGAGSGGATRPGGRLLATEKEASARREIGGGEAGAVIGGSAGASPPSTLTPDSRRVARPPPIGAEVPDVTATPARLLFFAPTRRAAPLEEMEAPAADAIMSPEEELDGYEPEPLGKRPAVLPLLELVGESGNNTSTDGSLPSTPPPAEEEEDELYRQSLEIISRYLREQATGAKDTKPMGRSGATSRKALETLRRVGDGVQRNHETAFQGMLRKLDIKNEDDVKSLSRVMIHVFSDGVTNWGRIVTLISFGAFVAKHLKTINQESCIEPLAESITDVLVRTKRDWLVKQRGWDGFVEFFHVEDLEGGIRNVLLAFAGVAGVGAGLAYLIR
The test is described as follows: In vitro Mcl-1 ubiquitination assay, reconstituted system, competition by BH3 peptides. It counts as biochemical. The following applies: peptide at 4 μM. The procedure:
as §1
We used methylated ubiquitin for further biochemical analysis because it gave clearer signal. Mule ubiquitinated Mcl-1 in a dose-dependent manner, and the ubiquitination activity relied on the presence of E1 and E2.
The members of Bcl-2 family of proteins containing only the BH3 domain use this domain to interact with other family members. If Mule also uses its BH3 domain to interact with Mcl-1, a peptide containing this domain should compete for Mule-Mcl-1 interaction therefore blocking Mcl-1 ubiquitination in the reconstituted system. To test this hypothesis, we synthesized a 26 amino acid Mule BH3-containing peptide and a mutant peptide in which four hydrophobic residues required for protein-protein interaction were switched with […] (4E).

For the next test, the target named is T3, Bcl-xL (Homo sapiens, UniProt Q07817).
T3 construct: endogenous in cells; host or cells: HeLa S100
T3 sequence (Q07817 whole entry): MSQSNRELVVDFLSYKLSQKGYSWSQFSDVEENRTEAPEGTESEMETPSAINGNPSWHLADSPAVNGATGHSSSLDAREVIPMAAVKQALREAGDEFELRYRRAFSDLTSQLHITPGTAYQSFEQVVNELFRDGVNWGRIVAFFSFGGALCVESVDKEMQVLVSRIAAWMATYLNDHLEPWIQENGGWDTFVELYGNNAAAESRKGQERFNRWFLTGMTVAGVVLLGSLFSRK
The test is described as follows: Biotin-labeled BH3 peptide pull down from HeLa S100. The format is binding.
Excerpt: as §2

In another test the target is T4, Bcl-2 (Homo sapiens, UniProt P10415).
T4 construct: endogenous in cells; host or cells: HeLa S100
T4 sequence (P10415 whole entry): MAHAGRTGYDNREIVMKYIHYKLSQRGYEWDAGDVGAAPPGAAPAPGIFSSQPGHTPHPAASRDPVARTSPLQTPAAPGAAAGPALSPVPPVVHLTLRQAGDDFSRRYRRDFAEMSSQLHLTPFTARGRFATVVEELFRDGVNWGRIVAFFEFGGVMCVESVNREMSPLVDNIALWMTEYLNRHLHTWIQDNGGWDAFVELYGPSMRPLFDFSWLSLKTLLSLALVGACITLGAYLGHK
Described as above. It counts as binding.
Excerpt: as §2

The target in another test is T5, Bax (Homo sapiens, UniProt Q07812).
T5 construct: endogenous in cells; host or cells: HeLa S100
T5 sequence (Q07812 whole entry): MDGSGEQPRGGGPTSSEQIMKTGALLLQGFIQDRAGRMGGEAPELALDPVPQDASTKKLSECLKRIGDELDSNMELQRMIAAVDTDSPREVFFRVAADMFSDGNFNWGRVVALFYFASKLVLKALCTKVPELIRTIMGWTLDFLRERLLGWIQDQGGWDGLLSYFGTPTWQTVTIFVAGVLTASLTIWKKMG
The description is as above. The format is binding.
Excerpt: as §2

The subject of another test is Mcl-1 and Mule. The test is described as follows: Co-immunoprecipitation of Mule with Flag-Mcl-1 from Flag-Mcl-1 expressing cells. The following applies: anti-Flag immunoprecipitation. The format is cell-based. An excerpt:
We next tested whether Mule interacts with Mcl-1 in vivo. Cell extracts from Flag-Mcl-1 expressing cells were immunoprecipitated with an anti-Flag monoclonal antibody. The immunoprecipitates were then subjected to SDS-PAGE and immunoblotted with antibodies against Flag or Mule. The antibody against Flag precipitated Flag-Mcl-1 in Flag-Mcl-1 expressing cells but not in the control cells. The Flag antibody also precipitated Mule, and the amount of co-precipitated Mcl-1 and Mule increased upon treatment with the proteasome inhibitor MG132.

Another test concerns proteasome. Briefly: Western blotting for Mcl-1 in Hela cells treated with proteasome inhibitor. It counts as cell-based, human. The following applies: anti-Mcl-1 western blotting. The text has this:
Proteins targeted for proteasome degradation are usually modified by a poly-ubiquitin chain (Hershko and Ciechanover, 1998). To test whether Mcl-1 is ubiquitinated, we treated Hela cells with a proteasome inhibitor MG132 to block the proteasome activity and performed western blotting analysis for Mcl-1 to test for the accumulation of higher molecular weight forms that could be ubiquitin modified. […] To verify these higher molecular weight bands were indeed caused by polyubiquitin conjugation of Mcl-1, the protein was immunoprecipitated by an anti-Mcl-1 antibody and the immuno-precipitate was probed by an anti-ubiquitin antibody.
(Immunoblotting shows a protein as a band on a membrane.)

Ends that are not written are not given here. Peptide text beside a SMILES is read from it. * marks the point of attachment. Cbz = O=C(OCc1ccccc1)*

T1 sequence (Q07820 whole entry): as the sequence (Q07820 whole entry) above

For “recombinant Mule: purified recombinant full-length human Mule protein, baculovirus-based expression system; Mcl-1 ubiquitin ligase E3”, the “stimulation of Mcl-1 ubiquitination” value with Mcl-1 [1] is on record as “able to stimulate Mcl-1 ubiquitination”.
`COc1cc([C@@H]2c3cc4c(cc3[C@@H](O[C@@H]3O[C@@H]5CO[C@@H](C)O[C@H]5[C@H](O)[C@H]3O)[C@H]3COC(=O)[C@H]23)OCO4)cc(OC)c1O` [etoposide]: the “cell death induced by the agent” value in the test on U2OS cells [2] is given as “reduced when Mule was knocked down”.
Regarding `N.N.[Cl][Pt][Cl]` [cisplatin], the “start of (weak) caspase-3 activation after treatment” value in the test with caspase-3 (Mule knocked down) was 8 h. In addition, the caspase-3 activation entry in the test on caspase-3 (Mule knocked down, 6 hours after treatment) is “did not see any caspase-3 activation”. Moreover, the “start of caspase-3 activation after treatment” value with caspase-3 (cells with Mule present) stood at 4 h. In addition, the “cleavage of PARP” value with caspase-3 (with or without Mule knocked down) is recorded as “showed the same pattern”. For the same compound, the “colonies relative to cells containing Mule” value in the test on U2OS cells [3] (Mule knocked down) was “more than nine fold more colonies”. Besides, in the test on U2OS cells [3] (cells containing Mule), the colonies grown up result is on record as “few if any colonies”. For the same compound, in the test on U2OS cells [2] (Mule knocked down), the “ability to induce apoptosis among the DNA damaging agents” value is “least ability to induce apoptosis”. In addition, in the test with U2OS cells [2], the “cell death induced by the agent” value is listed as “reduced when Mule was knocked down”.
For “Mule BH3 peptide: synthesized 26 amino acid Mule BH3-containing peptide (aa 1969-1994); biotin-labeled version used for pull down (PGVMTQEVGQLLQDMGDDVYQQYRSL; also: biotin-labeled (position not given here); UniProt Q7Z6Z7 1969-1994, looked up, fragment)”, the “pull down of Mcl-1” value with Mcl-1 [4] is on record as “specifically pulled down Mcl-1”. The “block of Mcl-1 ubiquitination” value in the test with Mule (Homo sapiens) was “efficiently block Mcl-1 ubiquitination”. Moreover, the “pull down of Bcl-xL” value with Bcl-xL was “not Bcl-xL, Bcl-2, and Bax”. In addition, the “pull down of Bcl-2” value with Bcl-2 is “not Bcl-xL, Bcl-2, and Bax”. Further, the “pull down of Bax” value with Bax is “not Bcl-xL, Bcl-2, and Bax”.
With `CC(C)C[C@@H](C=O)NC(=O)[C@H](CC(C)C)NC(=O)[C@H](CC(C)C)NC(=O)OCc1ccccc1` [MG132] (Cbz-Leu-Leu-Leu-aldehyde), in the test on Mcl-1 and Mule, the “amount of co-precipitated Mcl-1 and Mule” value was “increased”. In the test with proteasome, the “accumulation of higher molecular weight (polyubiquitinated) forms of Mcl-1” value is “Higher molecular weight protein bands were detected”.

The values above are taken from patent US7303887B2, “Mule: Mcl-1 ubiquitination ligase E3” (Board of Regents, The University of Texas System, priority 2005, dated 2007).
